Patent US10766912B2 (priority 2017, dated 2020)
pEC50: −log10 of the molar value.

Assays:
[1] = system: HCV GT1b/3a NS5A chimeric replicon; test: Assay Example 1: activity against HCV GT1b/3a NS5A chimeric replicon; assay type: cell-based; details: Hepatitis C virus, Huh-7, 72 h, read-out: EC50 value GT1b/3a NS5A chimeric replicon
Experimental: (§1) Cells: Huh 7 cell line and HCV GT1b/3a and GT1b/6a NS5A chimeric replicons and GT1b and GT1a wild-type replicon RNA.
(§2) Treatment of Compound: According to the assay final concentrations of the compounds in Table 2, DMSO stock solutions of the compounds were diluted and then added to a 96-well assay plate. The final concentration of DMSO was 0.5%.
(§3) The preparation of cells: After replicon plasmid DNA was linearized with a corresponding restriction enzyme, the DNA was transcribed into RNA by using T7RNA polymerase. Replicon RNA prepared by transcription in vitro was transfected into Huh-7 cells by electroporation. Transfected cells were seeded at a density of 10,000 cells per well into the 96-well assay plate containing the diluted compounds, and then the plate was placed in a 37° C. incubator with 5% CO2 and cultured for 3 days.
(§4) Drug activity assay: Luminescence signal value (RLU) was detected with Envision within 15 minutes using the luciferase assay reagent Britelite plus, and the original data (RLU) was used for the calculation of the activity of the compounds.
(§5) The activity of the compounds was calculated by using the equation below: Inhibition %=(ZPE−CPD)/(ZPE−HPE)×100%*
(§6) The cell viability percentages (Viability %) and the inhibition percentages (Inhibition %) were imported into GraphPad Prism software, respectively, and curves were fitted by using nonlinear regression method to obtain the corresponding curves of the compounds, and the cytotoxicity (CC50) thereof and inhibitory activity (EC50) values against the HCV replicon thereof.

in vitro = assay type: cell-based; details: human; Huh 7 cells with GT1b wild-type replicon, 3 days, CellTiter-Fluor
Experimental: as §1, §2, §3
Cell viability assay: A cell growth fluorescent titration detection reagent CellTiter-Fluor was added to the 96-well plate of the GT1b wild-type replicon. After the cells were cultured for 1 hour in a 37° C. incubator with 5% CO2, the fluorescence signal value (RFU) was detected by Envision, and the original data (RFU) was used for the calculation of the cytotoxicity of the compounds.
The cytotoxicity of the compounds was calculated by using the equation below: Cell Viability %=(CPD−HPE)/(ZPE−HPE)×100%*
as §6

[2] = Assay Example 3: parallel cytotoxicity assay (alamarBlue) without viral infection; assay type: cell-based; details: human, Huh7.5.1 cells without viral infection, no viral infection, read-out: CC50 Value HCVcc
Experimental: Cells: Huh7.5.1 cells and hepatitis C virus HCVcc (GT2a, JFH-1) infection system.
Treatment of Compound: According to the assay final concentrations of the compounds in Table 6, DMSO stock solutions of the compounds were diluted and then added to a 96-well assay plate. The final concentration of DMSO was 0.5%.
Viral infection: Huh7.5.1 cells were seeded in a 96-well cell culture plate, and the cells were cultured overnight at 37° C. in an incubator with 5% CO2 for later use. The compound and the HCVcc virus solution (MOI=0.1) were simultaneously added to the cells, and the virus infection was cultured for 3 days. Parallel cytotoxicity assay was identical to the method for the inhibition of the virus but without viral infection.
Cell viability assay: Cell viability was detected by the addition of alamarBlue assay reagent. The original data (RFU) was used for the calculation of the cytotoxicity of the compounds.
The cytotoxicity of the compounds was calculated by using the equation below: Cell Viability %=CPD/CC×100%*
as §6, with “(Cell Viability” for “(Viability”, “compound activity” for “inhibition”

[3] = system: GT1a-NS5A-L31V mutant replicon; test: Assay Example 6: drug resistance, activity against GT1a-NS5A-L31V mutant replicon; assay type: cell-based, hepatitis C virus; details: for GT1a-NS5A-L31V Fold change: EC50 mutant versus GT1a-wt; for pEC50: Hepatitis C virus, GT1A, Huh-7, 72 h, read-out: GT1a-NS5A-L31V EC50 value
Experimental: Cells: Huh-7 cells are liver cancer cell strains (from AppTec, USA), HCVGT1a wild-type replicon and GT1a-NS5A-Y93H and GT1a-NS5A-L31V mutant replicons
Treatment of Compound: According to the assay final concentrations of the compounds in Table 11, DMSO stock solutions of the compounds were diluted and then added to a 96-well assay plate. The final concentration of DMSO was 0.5%.
as §3, with “T7 RNA” for “T7RNA”, “then” for “then the plate was”
Compound activity assay: Luminescence signal value (RLU) was detected with Envision within 5 minutes by using the luciferase assay reagent Britelite plus, and the original data (RLU) was used for the calculation of the activity of the compounds.
The activity of the compounds was calculated by using the equation below: Inhibition %=(CPD−ZPE)/(HPE−ZPE)×100%*
The compound activity percentages (Inhibition %) were imported into GraphPad Prism software, and curves were fitted by using nonlinear regression method to obtain the corresponding curves of the compounds and the inhibitory activity (EC50) values against the HCV replicon thereof.

[4] = system: HCV GT1b/6a NS5A chimeric replicon; test: Assay Example 1: activity against HCV GT1b/6a NS5A chimeric replicon; assay type: cell-based; details: Hepatitis C virus, Huh-7, 72 h, read-out: EC50 value GT1b/6a NS5A chimeric replicon
Experimental: as §1, §2, §3, §4, §5, §6

[5] = system: HCV GT1a wild-type replicon; test: Assay Example 1: activity against HCV GT1a wild-type replicon; assay type: cell-based; details: Hepatitis C virus, 72 h, Huh 7 cells, 3 days, luciferase
Experimental: as §1, §2, §3, §4, §5, §6

SMILES | pEC50 [1] | CC50 (in vitro) | CC50 at 3 days [2] | GT1a-NS5A-L31V Fold change [3] | pEC50 [3] | pEC50 [4] | pEC50 [5]
COC(=O)N[C@H](C(=O)N1CCC[C@H]1C(=O)Nc1ccc([C@H]2CC[C@H](c3ccc4nc([C@@H]5CCCN5C(=O)[C@@H](NC(=O)OC)[C@@H](C)OC)[nH]c4c3)N2c2cc(F)c(N3CC[Si](C)(C)CC3)c(F)c2)cc1)[C@@H](C)OC [Compound 6b] | 11.62 | > 0.1 nM | > 0.1 nM | 10.0 | 10.66 | 11.27 | 11.21
COC(=O)N[C@H](C(=O)N1CCC[C@H]1C(=O)Nc1ccc([C@@H]2CC[C@@H](c3ccc(NC(=O)[C@@H]4CCCN4C(=O)[C@@H](NC(=O)OC)[C@@H](C)OC)cc3)N2c2cc(F)c(N3CC[Si](C)(C)CC3)c(F)c2)cc1)[C@@H](C)OC [Compound 1a, Methyl ((2S,2′S,3R,3′R)-((2S,2′S)-(((((2S,5S)-1-(4-(4,4-dimethylazasilinan-1-yl)-3,5-difluorophenyl)pyrrolidin-2,5-diyl)bis(4,1-phenylene))bis(azanediyl))bis(carbonyl))bis(pyrrolidin-2,1-diyl))bis(3-methoxy-1-oxobutan-1,2-diyl))dicarbamate] | 11.52 | > 0.1 nM | > 0.1 nM | 40.9 | 10.57 | 10.77 | 11.11
